We go through four compounds from PubChem BioAssay AID248 (DTP/NCI, 2004).

Molecules are shown by their SMILES. Several values for one entry are separate records, joined by “and”; a condition that tells them apart may be missing. Equal values may be shown once. Toxic doses and inconclusive results are not listed.

The experiment deals with L1210 leukemia ip in BDF1 mice, survival T/C. As to the kind of experiment: NCI In Vivo Anticancer Drug Screen. Data for tumor model L1210 Leukemia (intraperitoneal) in B6D2F1 (BDF1) mice. The note with it: endpoint: mean survival time, higher = longer survival. The essentials: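 Tumor was transplanted into mice, which were then dosed with test compound or vehicle alone. Survival was recorded for each group, and the treated figure was expressed relative to the control figure.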

Turning to `O=C(Nc1ccc(C2=NCCN2)cc1)c1ccc(C(=O)Nc2ccc(C3=NCCN3)cc2)c(NC(=O)c2ccc(C(=O)Nc3cc(C(=O)Nc4ccc(C5=NCCN5)cc4)ccc3C(=O)Nc3ccc(C4=NCCN4)cc3)cc2)c1`, the T/C reads like this: (dose: 2.5 mg/kg/injection, schedule: Q01DX Z (ip), vehicle: methylcellulose (MC)) 120 % of control; (dose: 3.1 mg/kg/injection, schedule: Q01DX Z (ip), vehicle: carboxymethylcellulose (CMC)) 104 % of control; (dose: 6.2 mg/kg/injection, schedule: Q01DX Z (ip), vehicle: carboxymethylcellulose (CMC)) 107 % of control; (dose: 6.25 mg/kg/injection, schedule: Q#A X Z (ip), vehicle: carboxymethylcellulose (CMC)) 108 % of control; (dose: 10.0 mg/kg/injection, schedule: Q01DX Z (ip), vehicle: methylcellulose (MC)) 157 % of control; (dose: 12.5 mg/kg/injection, schedule: Q01DX Z (ip), vehicle: carboxymethylcellulose (CMC)) 119 % of control. For the same compound, the T/C runs as follows: (dose: 12.5 mg/kg/injection, schedule: Q01DX Z (sc), vehicle: carboxymethylcellulose (CMC)) 98 % of control; (dose: 12.5 mg/kg/injection, schedule: Q#A X Z (ip), vehicle: carboxymethylcellulose (CMC)) 192 % of control; (dose: 22.0 mg/kg/injection, schedule: Q01DX015 (ip), vehicle: carboxymethylcellulose (CMC)) 116 % of control; (dose: 25.0 mg/kg/injection, schedule: Q01DX004 (im), vehicle: olive oil, sesame oil, peanut oil) 97 % of control; (dose: 25.0 mg/kg/injection, schedule: Q01DX Z (ip), vehicle: carboxymethylcellulose (CMC)) 175 % of control; (dose: 25.0 mg/kg/injection, schedule: Q01DX Z (sc), vehicle: carboxymethylcellulose (CMC)) 122 % of control. Also, the T/C (dose: 25.0 mg/kg/injection, schedule: Q#A X Z (ip), vehicle: carboxymethylcellulose (CMC)) was 289 % of control; the T/C (dose: 33.0 mg/kg/injection, schedule: Q01DX015 (ip), vehicle: carboxymethylcellulose (CMC)) is 106 % of control; the T/C (dose: 50.0 mg/kg/injection, schedule: Q01DX004 (im), vehicle: olive oil, sesame oil, peanut oil) was 95 % of control; the T/C (dose: 50.0 mg/kg/injection, schedule: Q01DX015 (ip), vehicle: carboxymethylcellulose (CMC)) was 110 % of control; the T/C (dose: 50.0 mg/kg/injection, schedule: Q01DX Z (ip), vehicle: carboxymethylcellulose (CMC)) is 302 % of control; the T/C (dose: 50.0 mg/kg/injection, schedule: Q01DX Z (oral), vehicle: carboxymethylcellulose (CMC)) was 95 % of control. The T/C (dose: 50.0 mg/kg/injection, schedule: Q01DX Z (sc), vehicle: carboxymethylcellulose (CMC)) was 201 % of control; the T/C (dose: 50.0 mg/kg/injection, schedule: Q#A X Z (ip), vehicle: carboxymethylcellulose (CMC)) was 194 % of control; the T/C (dose: 60.0 mg/kg/injection, schedule: Q01DX Z (ip), vehicle: methylcellulose (MC)) is 158 % of control and 359 % of control; the T/C (dose: 62.5 mg/kg/injection, schedule: Q## X010 (oral), vehicle: saline) was 98 % of control; the T/C (dose: 75.0 mg/kg/injection, schedule: Q03DX Z (ip), vehicle: carboxymethylcellulose (CMC)) is 206 % of control; the T/C (dose: 100.0 mg/kg/injection, schedule: Q01DX004 (im), vehicle: olive oil, sesame oil, peanut oil) was 95 % of control. Also, the T/C is 195 % of control (dose: 100.0 mg/kg/injection, schedule: Q01DX Z (ip), vehicle: carboxymethylcellulose (CMC)); 93 % of control (dose: 100.0 mg/kg/injection, schedule: Q01DX Z (oral), vehicle: carboxymethylcellulose (CMC)); 208 % of control (dose: 100.0 mg/kg/injection, schedule: Q01DX Z (sc), vehicle: carboxymethylcellulose (CMC)); 169 % of control (dose: 112.5 mg/kg/injection, schedule: Q01DX015 (ip), vehicle: carboxymethylcellulose (CMC)); 314 % of control (dose: 120.0 mg/kg/injection, schedule: Q01DX Z (ip), vehicle: methylcellulose (MC)); 284 % of control (dose: 150.0 mg/kg/injection, schedule: Q03DX Z (ip), vehicle: carboxymethylcellulose (CMC)). The T/C is 293 % of control (dose: 175.0 mg/kg/injection, schedule: Q07DX Z (ip), vehicle: carboxymethylcellulose (CMC)); 97 % of control (dose: 192.0 mg/kg/injection, schedule: Q01DX001 (ip), vehicle: carboxymethylcellulose (CMC)); 100 % of control (dose: 192.0 mg/kg/injection, schedule: Q01DX001 (ip), vehicle: other); 98 % of control (dose: 200.0 mg/kg/injection, schedule: Q01DX004 (im), vehicle: olive oil, sesame oil, peanut oil); 97 % of control (dose: 200.0 mg/kg/injection, schedule: Q01DX Z (oral), vehicle: carboxymethylcellulose (CMC)); 227 % of control (dose: 200.0 mg/kg/injection, schedule: Q01DX Z (sc), vehicle: carboxymethylcellulose (CMC)). Further, the T/C was 210 % of control (dose: 240.0 mg/kg/injection, schedule: Q01DX Z (ip), vehicle: methylcellulose (MC)); 101 % of control (dose: 250.0 mg/kg/injection, schedule: Q## X010 (oral), vehicle: saline); 97 % of control (dose: 281.0 mg/kg/injection, schedule: Q01DX001 (ip), vehicle: carboxymethylcellulose (CMC)); 103 % of control (dose: 281.0 mg/kg/injection, schedule: Q01DX001 (ip), vehicle: other); 190 % of control (dose: 300.0 mg/kg/injection, schedule: Q03DX Z (ip), vehicle: carboxymethylcellulose (CMC)); 278 % of control (dose: 350.0 mg/kg/injection, schedule: Q07DX Z (ip), vehicle: carboxymethylcellulose (CMC)). In addition, the T/C reads like this: (dose: 400.0 mg/kg/injection, schedule: Q01DX Z (oral), vehicle: carboxymethylcellulose (CMC)) 104 % of control; (dose: 422.0 mg/kg/injection, schedule: Q01DX001 (ip), vehicle: carboxymethylcellulose (CMC)) 95 % of control; (dose: 422.0 mg/kg/injection, schedule: Q01DX001 (ip), vehicle: other) 106 % of control; (dose: 500.0 mg/kg/injection, schedule: Q## X010 (oral), vehicle: saline) 104 % of control; (dose: 640.0 mg/kg/injection, schedule: Q01DX001 (ip), vehicle: carboxymethylcellulose (CMC)) 104 % of control; (dose: 640.0 mg/kg/injection, schedule: Q01DX001 (ip), vehicle: other) 104 % of control. In addition, the T/C is, setting by setting: (dose: 700.0 mg/kg/injection, schedule: Q07DX Z (ip), vehicle: carboxymethylcellulose (CMC)) 185 % of control; (dose: 800.0 mg/kg/injection, schedule: Q01DX Z (oral), vehicle: carboxymethylcellulose (CMC)) 89 % of control; (dose: 960.0 mg/kg/injection, schedule: Q01DX001 (ip), vehicle: carboxymethylcellulose (CMC)) 106 % of control and 120 % of control; (dose: 1440.0 mg/kg/injection, schedule: Q01DX001 (ip), vehicle: carboxymethylcellulose (CMC)) 116 % of control; (dose: 1440.0 mg/kg/injection, schedule: Q01DX001 (ip), vehicle: other) 120 % of control; (dose: 2160.0 mg/kg/injection, schedule: Q01DX001 (ip), vehicle: carboxymethylcellulose (CMC)) 121 % of control. The T/C is 123 % of control (dose: 3240.0 mg/kg/injection, schedule: Q01DX001 (ip), vehicle: carboxymethylcellulose (CMC)) and 191 % of control (dose: 3240.0 mg/kg/injection, schedule: Q01DX001 (ip), vehicle: other).
`CC(=O)Nc1ccc(S(=O)(=O)NC2(c3ccccc3)C(=O)N(C)C(=O)N(C)C2=O)cc1`: the T/C reads like this: (dose: 100.0 mg/kg/injection, schedule: Q01DX001 (ip), vehicle: saline) 91 % of control; (dose: 200.0 mg/kg/injection, schedule: Q01DX001 (ip), vehicle: saline) 94 % of control; (dose: 400.0 mg/kg/injection, schedule: Q01DX001 (ip), vehicle: saline) 103 % of control.
As to `COc1cc(N(CCCl)CCCl)ccc1C1N(Cc2ccc(N(C)C)cc2)CCCN1Cc1ccc(N(C)C)cc1`, the T/C is, setting by setting: (dose: 100.0 mg/kg/injection, schedule: Q04DX003 (ip), vehicle: Klucel (hydroxypropylcellulose) (HPC)) 100 % of control; (dose: 200.0 mg/kg/injection, schedule: Q04DX003 (ip), vehicle: Klucel (hydroxypropylcellulose) (HPC)) 107 % of control; (dose: 400.0 mg/kg/injection, schedule: Q04DX003 (ip), vehicle: Klucel (hydroxypropylcellulose) (HPC)) 104 % of control.
For the compound `CCOC(=O)C1(c2ccccc2)CCCNC1=O` (stereo not given), the T/C was 107 % of control (dose: 100.0 mg/kg/injection, schedule: Q04DX002 (ip), vehicle: saline); 89 % of control (dose: 200.0 mg/kg/injection, schedule: Q04DX002 (ip), vehicle: saline); 100 % of control (dose: 400.0 mg/kg/injection, schedule: Q04DX002 (ip), vehicle: saline).
